ChEMBL document CHEMBL2434848, “Synthesis and biological evaluation of novel alkyl amide functionalized trifluoromethyl substituted pyrazolo[3,4-b]pyridine derivatives as potential anticancer agents” (Bioorg Med Chem Lett, 2013)
pIC50: −log10 of the molar value.

Columns and labels:
Type in all cases: functional, cell-based
[1] = test system: HeLa; experiment: Cytotoxicity against human HeLa cells after 24 hrs by MTT assay; conditions: for pIC50: Homo sapiens, HeLa, 24 h, read-out: IC50
[2] = test system: DU-145; experiment: Cytotoxicity against human DU145 cells after 24 hrs by MTT assay; conditions: for pIC50: Homo sapiens, DU-145, 24 h, read-out: IC50
[3] = test system: MCF7; experiment: Cytotoxicity against human MCF7 cells after 24 hrs by MTT assay; conditions: for pIC50: Homo sapiens, MCF7, 24 h, read-out: IC50
[4] = test system: A549; experiment: Cytotoxicity against human A549 cells after 24 hrs by MTT assay; conditions: for pIC50: Homo sapiens, A549, 24 h, read-out: IC50

Row | SMILES | pIC50 [1] | pIC50 [2] | pIC50 [3] | pIC50 [4] | IC50 ([1]; hela) | IC50 ([2]; du-145) | IC50 ([3]; mcf7) | IC50 ([4]; a549)
1 | NNC(=O)Cn1nc(N)c2c(C(F)(F)F)cc(-c3ccccc3)nc21 | 4.32 | 4.28 | 4.45 | 4.27 |  |  |  | 
2 | Nc1nn(CC(=O)NCc2ccccc2)c2nc(-c3ccccc3)cc(C(F)(F)F)c12 | 4.77 | 4.81 | 4.79 | 4.76 |  |  |  | 
3 | Nc1nn(CC(=O)NC2CCCCC2)c2nc(-c3ccccc3)cc(C(F)(F)F)c12 | 5.41 | 5.51 | 5.28 | 5.64 |  |  |  | 
4 | Nc1nn(CC(=O)NCC(=O)O)c2nc(-c3ccccc3)cc(C(F)(F)F)c12 | 4.72 | 4.73 | 4.67 | 4.70 |  |  |  | 
5 | Nc1nn(CC(=O)N2CCN(c3ccccc3)CC2)c2nc(-c3ccccc3)cc(C(F)(F)F)c12 | 4.70 | 4.72 | 4.71 | 4.68 |  |  |  | 
6 | CN1CCN(C(=O)Cn2nc(N)c3c(C(F)(F)F)cc(-c4ccccc4)nc32)CC1 | 4.75 | 4.74 | 4.78 | 4.74 |  |  |  | 
7 | Nc1nn(CC(=O)N2CCCCC2)c2nc(-c3ccccc3)cc(C(F)(F)F)c12 | 5.54 | 5.49 | 5.39 | 5.92 |  |  |  | 
8 | CCNC(=O)Cn1nc(N)c2c(C(F)(F)F)cc(-c3ccccc3)nc21 | 4.69 | 4.75 | 4.67 | 4.73 |  |  |  | 
9 | CC(NC(=O)Cn1nc(N)c2c(C(F)(F)F)cc(-c3ccccc3)nc21)C(=O)O (stereo not given) | 4.70 | 4.65 | 4.70 | 4.59 |  |  |  | 
10 | Nc1nn(CC(=O)N2CCN(CCO)CC2)c2nc(-c3ccccc3)cc(C(F)(F)F)c12 | 5.54 | 5.49 | 4.81 | 4.83 |  |  |  | 
11 | O=c1[nH]cc(F)c(=O)[nH]1 [FLUOROURACIL] | 5.96 | 5.89 | 5.92 | 5.96 |  |  |  | 
12 | Nc1nn(CC(=O)NCc2ccco2)c2nc(-c3ccccc3)cc(C(F)(F)F)c12 | 5.15 | 5.25 | 5.30 | 5.11 |  |  |  | 
13 | Nc1nn(CC(=O)N2CCCC2)c2nc(-c3ccccc3)cc(C(F)(F)F)c12 | 4.79 | 4.91 | 4.80 | 4.73 |  |  |  | 
14 | NCCNC(=O)Cn1nc(N)c2c(C(F)(F)F)cc(-c3ccccc3)nc21 | 4.35 | 4.41 | 4.37 | 4.30 |  |  |  | 
15 | Nc1nn(CC(=O)NCCO)c2nc(-c3ccccc3)cc(C(F)(F)F)c12 | 4.16 | 4.02 | 4.11 | 3.89 |  |  |  | 
16 | Nc1nn(CC(=O)NC2CC2)c2nc(-c3ccccc3)cc(C(F)(F)F)c12 |  |  |  |  | Not Active | Not Active | Not Active | Not Active
17 | Nc1nn(CC(=O)N2CCOCC2)c2nc(-c3ccccc3)cc(C(F)(F)F)c12 | 5.18 | 5.29 | 5.23 | 5.27 |  |  |  | 
18 | CNC(=O)Cn1nc(N)c2c(C(F)(F)F)cc(-c3ccccc3)nc21 | 4.91 | 4.84 | 4.93 | 4.82 |  |  |  | 
19 | Nc1nn(CC(=O)NC(Cc2ccccc2)C(=O)O)c2nc(-c3ccccc3)cc(C(F)(F)F)c12 (stereo not given) | 4.50 | 4.49 | 4.38 | 4.52 |  |  |  | 
20 | CCCNC(=O)Cn1nc(N)c2c(C(F)(F)F)cc(-c3ccccc3)nc21 | 4.80 | 4.81 | 4.83 | 4.78 |  |  |  | 
